For one assay, the system named is HCT 116. Put plainly: cells. The note with it: Homo sapiens, HCT-116, 72 h, read-out: In Vitro Cellular IC50 HCT 116.
The next assay deals with MV-4-11. Put plainly: cells. As to conditions: Homo sapiens, MV4-11, 72 h, read-out: In Vitro Cellular IC50 MV-4-11.
The target of assay [1] is HDAC (HeLa nuclear extracts). Put plainly: HDAC enzyme assay, HeLa nuclear extracts. As to conditions: read-out: In Vitro Enzymatic IC50 HDAC (HeLa).
A further assay has as its system MCF7. The assay can be described thus: Anti-proliferative assay (cellular IC50), MCF7. As to conditions: Homo sapiens, MCF7, 72 h, read-out: In Vitro Cellular IC50 MCF7.
The test system of the next assay is PC-3. Put plainly: Anti-proliferative assay (cellular IC50), PC-3. As to conditions: Homo sapiens, PC-3, 72 h, read-out: In Vitro Cellular IC50 PC-3.
Another assay concerns HepG2. The assay can be described thus: Anti-proliferative assay (cellular IC50), HepG2. The note with it: Homo sapiens, HepG2, 72 h, read-out: In Vitro Cellular IC50 HepG2.
For the next assay, the target named is T1, PI3Kα (Homo sapiens, UniProt P42336).
T1 construct: purchased Invitrogen, or BPS Bioscience Inc., or SignalChem PV4788 / 40620 / P27-18H
The assay can be described thus: Kinase enzyme assay (ADP-Glo), PI3Kα. It is filed as biochemical. The note with it: read-out: In Vitro Enzymatic IC50 PI3Kα.

The next assay relates to COLO 205. Put plainly: cells. The note with it: Homo sapiens, COLO 205, 72 h, read-out: In Vitro Cellular IC50 COLO 205.
The target in a further assay is HDAC1 (Homo sapiens, UniProt Q13547). Put plainly: HDAC enzyme assay, recombinant HDAC1.
Another assay addresses T2, HDAC6 (Homo sapiens, UniProt Q9UBN7).
T2 sequence (Q9UBN7 1-1215): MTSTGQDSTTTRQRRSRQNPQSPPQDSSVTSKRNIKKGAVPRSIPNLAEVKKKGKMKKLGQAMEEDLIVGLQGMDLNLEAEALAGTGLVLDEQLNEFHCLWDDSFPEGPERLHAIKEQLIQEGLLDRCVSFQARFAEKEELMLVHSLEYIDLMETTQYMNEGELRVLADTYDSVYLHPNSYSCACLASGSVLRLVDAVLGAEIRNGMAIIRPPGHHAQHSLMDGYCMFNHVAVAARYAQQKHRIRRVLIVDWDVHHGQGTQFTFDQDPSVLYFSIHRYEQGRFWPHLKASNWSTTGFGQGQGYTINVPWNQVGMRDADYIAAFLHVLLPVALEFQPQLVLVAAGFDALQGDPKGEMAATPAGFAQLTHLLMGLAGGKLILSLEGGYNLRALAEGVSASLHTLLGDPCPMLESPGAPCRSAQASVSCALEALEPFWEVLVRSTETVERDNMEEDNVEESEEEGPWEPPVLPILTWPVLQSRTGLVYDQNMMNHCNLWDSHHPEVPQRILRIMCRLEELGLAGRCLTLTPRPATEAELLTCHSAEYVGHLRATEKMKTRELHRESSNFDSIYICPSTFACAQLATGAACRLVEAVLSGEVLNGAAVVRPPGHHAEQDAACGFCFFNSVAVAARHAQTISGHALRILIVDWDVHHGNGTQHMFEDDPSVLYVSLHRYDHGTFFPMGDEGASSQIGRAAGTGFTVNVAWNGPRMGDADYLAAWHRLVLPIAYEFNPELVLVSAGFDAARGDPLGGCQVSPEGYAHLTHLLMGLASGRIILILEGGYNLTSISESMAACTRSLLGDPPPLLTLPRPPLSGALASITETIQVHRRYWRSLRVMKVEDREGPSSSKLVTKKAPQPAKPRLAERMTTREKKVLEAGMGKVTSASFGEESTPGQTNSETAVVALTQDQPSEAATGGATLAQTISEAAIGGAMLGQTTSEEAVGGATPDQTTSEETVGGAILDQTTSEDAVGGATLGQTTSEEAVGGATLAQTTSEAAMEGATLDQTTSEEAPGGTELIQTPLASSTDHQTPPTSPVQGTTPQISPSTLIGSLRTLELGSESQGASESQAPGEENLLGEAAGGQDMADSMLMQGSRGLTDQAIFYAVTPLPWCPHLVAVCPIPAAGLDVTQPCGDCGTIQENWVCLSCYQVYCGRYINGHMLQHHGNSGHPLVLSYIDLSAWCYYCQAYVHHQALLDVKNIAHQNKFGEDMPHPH
Put plainly: HDAC enzyme assay, recombinant HDAC6.

Another assay has as its system K-562. The assay can be described thus: Anti-proliferative assay (cellular IC50), K-562. As to conditions: Homo sapiens, K562, 72 h, read-out: In Vitro Cellular IC50 K-562.
The subject of a further assay is MOLT-4. The assay can be described thus: Anti-proliferative assay (cellular IC50), MOLT-4. The note with it: Homo sapiens, MOLT-4, 72 h, read-out: In Vitro Cellular IC50 MOLT-4.

T1 sequence (P42336 whole entry): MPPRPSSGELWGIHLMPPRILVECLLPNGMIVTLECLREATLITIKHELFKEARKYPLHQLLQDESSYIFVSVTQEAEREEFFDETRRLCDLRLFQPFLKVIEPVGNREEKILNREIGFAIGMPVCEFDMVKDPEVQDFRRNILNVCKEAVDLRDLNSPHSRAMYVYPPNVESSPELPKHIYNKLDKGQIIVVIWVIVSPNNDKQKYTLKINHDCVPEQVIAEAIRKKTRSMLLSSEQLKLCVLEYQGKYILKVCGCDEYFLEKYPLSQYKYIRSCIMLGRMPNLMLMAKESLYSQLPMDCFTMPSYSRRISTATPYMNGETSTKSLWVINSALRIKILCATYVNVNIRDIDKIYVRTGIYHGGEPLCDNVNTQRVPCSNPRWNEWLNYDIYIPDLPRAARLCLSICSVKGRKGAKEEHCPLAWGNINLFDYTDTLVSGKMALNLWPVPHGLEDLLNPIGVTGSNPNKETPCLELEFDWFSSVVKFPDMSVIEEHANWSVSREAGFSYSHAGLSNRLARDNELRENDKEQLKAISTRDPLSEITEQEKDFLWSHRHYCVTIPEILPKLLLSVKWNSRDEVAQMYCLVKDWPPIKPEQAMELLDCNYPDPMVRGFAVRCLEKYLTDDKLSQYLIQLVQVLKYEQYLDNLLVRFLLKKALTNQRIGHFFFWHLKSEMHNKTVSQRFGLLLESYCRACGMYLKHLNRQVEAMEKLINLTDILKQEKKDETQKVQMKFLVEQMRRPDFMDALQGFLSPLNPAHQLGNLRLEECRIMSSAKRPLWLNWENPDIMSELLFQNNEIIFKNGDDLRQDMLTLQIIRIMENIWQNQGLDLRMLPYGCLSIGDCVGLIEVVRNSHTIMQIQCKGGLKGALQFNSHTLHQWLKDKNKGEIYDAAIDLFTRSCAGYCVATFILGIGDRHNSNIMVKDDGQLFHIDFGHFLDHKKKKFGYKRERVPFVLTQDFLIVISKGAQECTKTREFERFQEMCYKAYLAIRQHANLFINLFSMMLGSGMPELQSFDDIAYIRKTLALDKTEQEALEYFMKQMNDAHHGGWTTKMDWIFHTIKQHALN
T1 sequence (P27986 whole entry partner): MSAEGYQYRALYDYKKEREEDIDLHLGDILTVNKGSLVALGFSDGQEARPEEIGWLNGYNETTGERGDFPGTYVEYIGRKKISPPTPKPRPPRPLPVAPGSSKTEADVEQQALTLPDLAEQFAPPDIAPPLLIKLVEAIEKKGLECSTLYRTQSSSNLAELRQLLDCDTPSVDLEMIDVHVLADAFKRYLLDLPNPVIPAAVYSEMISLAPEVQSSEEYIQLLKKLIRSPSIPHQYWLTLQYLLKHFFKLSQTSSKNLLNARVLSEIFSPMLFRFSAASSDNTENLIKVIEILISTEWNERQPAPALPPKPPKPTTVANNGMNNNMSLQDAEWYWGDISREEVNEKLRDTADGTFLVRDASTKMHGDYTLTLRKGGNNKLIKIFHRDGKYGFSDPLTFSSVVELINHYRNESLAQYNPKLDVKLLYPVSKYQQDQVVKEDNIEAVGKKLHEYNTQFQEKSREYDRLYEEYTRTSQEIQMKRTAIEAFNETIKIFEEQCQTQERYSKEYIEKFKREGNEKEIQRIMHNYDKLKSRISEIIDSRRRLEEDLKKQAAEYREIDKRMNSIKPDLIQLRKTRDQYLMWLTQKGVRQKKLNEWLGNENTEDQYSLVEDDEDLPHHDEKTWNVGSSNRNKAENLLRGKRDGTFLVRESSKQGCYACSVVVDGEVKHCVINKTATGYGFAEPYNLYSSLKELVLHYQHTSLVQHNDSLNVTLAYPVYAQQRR
Chain of HDAC1 (Q13547 whole entry): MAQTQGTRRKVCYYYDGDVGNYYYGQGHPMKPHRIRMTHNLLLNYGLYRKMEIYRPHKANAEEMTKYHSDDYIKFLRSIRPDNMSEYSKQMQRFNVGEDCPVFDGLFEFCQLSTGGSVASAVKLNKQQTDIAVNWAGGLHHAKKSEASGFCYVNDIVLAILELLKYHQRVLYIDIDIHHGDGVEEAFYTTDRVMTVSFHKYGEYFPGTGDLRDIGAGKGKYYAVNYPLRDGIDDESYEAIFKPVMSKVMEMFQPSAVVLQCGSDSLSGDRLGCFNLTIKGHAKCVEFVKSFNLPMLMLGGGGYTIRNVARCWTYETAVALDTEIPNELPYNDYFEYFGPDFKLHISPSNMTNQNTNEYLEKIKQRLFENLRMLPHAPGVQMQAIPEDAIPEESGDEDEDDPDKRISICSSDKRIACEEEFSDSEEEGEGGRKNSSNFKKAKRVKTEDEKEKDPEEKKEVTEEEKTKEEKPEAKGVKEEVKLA
Experimental for COLO 205: (§1) Cells were cultivated at 37° C., 5% CO2 in media containing 10% FBS and 2 mM glutamine Cells were routinely monitored with MycoAlert™ PLUS Mycoplasma Detection Kit (Lonza Walkersville, Inc.) to make sure they were mycoplasma free. Antibiotics (100 U/mL of penicillin and 100 μg/mL of streptomycin) were only added to the media used for compound dilution and cells in 96-well assay plates.
(§2) For a typical screening experiment, cells (100 μL/well) are inoculated into 96 well microtiter plates at plating densities ranging from 2,000 to 30,000 cells/well depending on the doubling time of individual cell lines and assay linearity. […] Suspension cells are treated with test compounds immediately after cell inoculation.
(§3) Test compounds are serially diluted (3-fold or 4-fold, 8-concentration) using the same media and added to the plates (15 to 25 μL/well). After 72 h of cultivation, the plates are assayed for cell cytotoxicity/viability by using the following two methods.
(§4) Cells in plates are fixed with cold trichloroacetic acid (TCA) (50% w/v in DI water, 1/4 volume of the medium in each well), and incubated at 4° C. for 1 h (adherent cells) or 2 h (suspension cells). The plates are washed 5 times (tap water×3, DI water×2) and air-dried. SRB solution 0.4% (w/v) in 1% acetic acid is added to each well (60 μL/well) and the plates are incubated at room temperature for 30 min, then washed with 1% acetic acid solution 4 times, and air-dried.
(§5) The plates are added CellTiter-Glo® Reagent (95 μL/well) and read the luminescence on a BioTek H4 reader per manufacture's protocol.
(§6) The raw data are processed using BioTek's Software Gen5 (v2.03.01) to generate inhibitory IC50 values.
Experimental for HepG2: as §1, §2, §3, §4, §5, §6
Experimental for K-562: as §1, §2, §3, §4, §5, §6
Experimental for MCF7: as §1, §2, §3, §4, §5, §6
Experimental for PC-3: as §1, §2, §3, §4, §5, §6

As to `CC(C)n1ccc2c(-c3cccc(OCCCC(=O)NO)c3)nc(N3CCCC3)nc21` [compound 75, N-hydroxy-4-(3-(7-isopropyl-2-(pyrrolidin-1-yl)-7H-pyrrolo[2,3-d]pyrimidin-4-yl)phenoxy)butanamide], the IC50 was 500 to 2000 nM in the assay on HCT 116; below 500 nM in the assay with MV-4-11; 10 to 100 nM in assay [1]; 500 to 2000 nM in the assay with MCF7; 2000 to 10000 nM in the assay on PC-3; 2000 to 10000 nM with HepG2.
As to `CCn1c(CNCCCCCC(=O)NO)nc2c(N3CCOCC3)nc(-c3cnc(N)nc3)nc21` [compound 87, 6-(((2-(2-aminopyrimidin-5-yl)-9-ethyl-6-morpholino-9H-purin-8-yl)methyl)amino)-N-hydroxyhexanamide], the IC50 at PI3Kα is 10 to 100 nM; in the assay on COLO 205, above 10000 nM; on HDAC1, 100 to 1000 nM; at HDAC6, 100 to 1000 nM; in [1], 100 to 1000 nM; in the assay with K-562, above 10000 nM. Also, the IC50 in the assay on MOLT-4 lay within 2000 to 10000 nM.
As for `O=C(CCCCCCn1ccc2c(N3CCOCC3)nc(-c3cccc(O)c3)nc21)NO` [compound 79, N-hydroxy-7-(2-(3-hydroxyphenyl)-4-morpholino-7H-pyrrolo[2,3-d]pyrimidin-7-yl)heptanamide], at HDAC6, the IC50 is below 10 nM.
For the compound `O=C(CCCCCCn1cnc2c(N3CCC(O)CC3)nc(-c3cccc(CO)c3)nc21)NO` [compound 105, N-hydroxy-7-(2-(3-(hydroxymethyl)phenyl)-6-(4-hydroxypiperidin-l-yl)-9H-purin-9-yl)heptanamide], the IC50 was 500 to 2000 nM in the assay with HCT 116; below 500 nM in the assay with MV-4-11; below 10 nM in assay [1]; 500 to 2000 nM in the assay with MCF7; below 500 nM in the assay with MOLT-4.
Turning to `COc1ncc(-c2nc(N3CCOCC3)c3ncn(CCCCCCC(=O)NO)c3n2)cn1` [compound 55, N-hydroxy-7-(2-(2-methoxypyrimidin-5-yl)-6-morpholino-9H-purin-9-yl)heptanamide], the IC50 on HDAC6 lay within 10 to 100 nM.
Still for that read-out and setting: under `Nc1ncc(-c2nc(N3CCOCC3)nc3c2ncn3CCCCCCC(=O)NO)cn1` [compound 3] stands 10 to 100 nM; under `NC(=O)c1cccc(-c2nc(N3CCOCC3)c3ncn(CCCCCCC(=O)NO)c3n2)c1` [compound 49, 3-(9-(7-(hydroxyamino)-7-oxoheptyl)-6-morpholino-9H-purin-2-yl)benzamide], below 10 nM.
`CC(C)n1c(N2CCC(C(=O)NO)CC2)nc2c(N3CCOCC3)nc(-c3cnc(N)nc3)nc21` [compound 86, 1-(2-(2-aminopyrimidin-5-yl)-9-isopropyl-6-morpholino-9H-purin-8-yl)-N-hydroxypiperidine-4-carboxamide]: the IC50 on PI3Kα was 10 to 100 nM; with COLO 205, 2000 to 10000 nM; on HDAC1, 1000 to 10000 nM; in assay [1], 1000 to 10000 nM; in the assay on K-562, 2000 to 10000 nM; with MOLT-4, 500 to 2000 nM.
Take `CCn1c(CN(C)Cc2ccc(/C=C/C(=O)NO)cc2)nc2c(N3CCOCC3)nc(-c3cccc(C(N)=O)c3)nc21` [compound 91, (E)-3-(9-ethyl-8-(((4-(3-(hydroxyamino)-3-oxoprop-1-en-1-yl)benzyl)(methyl)amino)methyl)-6-morpholino-9H-purin-2-yl)benzamide]: the IC50 is 100 to 1000 nM at PI3Kα; 2000 to 10000 nM with COLO 205; 100 to 1000 nM on HDAC1; 100 to 1000 nM in [1]; 2000 to 10000 nM in the assay with K-562; 2000 to 10000 nM in the assay on MOLT-4.
`CC(=O)Nc1cccc(-c2nc(N3CCOCC3)c3ncn(CCCCCCC(=O)NO)c3n2)c1` [compound 48, 7-(2-(3-acetamidophenyl)-6-morpholino-9H-purin-9-yl)-N-hydroxyheptanamide]: the IC50 at HDAC6 is below 10 nM.
With `COc1ccc(-c2nc(N3CCOCC3)c3ncn(CCCCCCC(=O)NO)c3n2)cn1` [compound 52, N-hydroxy-7-(2-(6-methoxypyridin-3-yl)-6-morpholino-9H-purin-9-yl)heptanamide], the IC50 at HDAC6 lay in the range of 10 to 100 nM.
With `CCC(CC)n1cnc2c(-c3cccc(OCCCC(=O)NO)c3)nc(N3CCOCC3)nc21` [compound 101, N-hydroxy-4-(3-(2-morpholino-9-(pentan-3-yl)-9H-purin-6-yl)phenoxy)butanamide], the IC50 was 500 to 2000 nM in the assay on HCT 116; below 500 nM in the assay with MV-4-11; 10 to 100 nM in [1]; below 500 nM in the assay with MCF7; 500 to 2000 nM in the assay on HepG2; below 500 nM in the assay with MOLT-4.
Consider `O=C(CCCCCCn1cnc2c(N3CCOCC3)nc(-c3cn[nH]c3)nc21)NO` [compound 51, N-hydroxy-7-(6-morpholino-2-(1H-pyrazol-4-yl)-9H-purin-9-yl)heptanamide], for which the IC50 at HDAC6 was below 10 nM.
Take `CC(C)n1cnc2c(-c3cccc(OCC(=O)NO)c3)nc(N3CCOCC3)nc21` [compound 24, N-hydroxy-2-(3-(9-isopropyl-2-morpholino-9H-purin-6-yl)phenoxy)acetamide]: the IC50 at PI3Kα and at HDAC1 was 1000 to 10000 nM each time.
Regarding `CCn1c(CN(C)Cc2ccc(/C=C/C(=O)NO)cc2)nc2c(N3CCOCC3)nc(-c3cccc(NC(C)=O)c3)nc21` [compound 92, (E)-3-(4-((((2-(3-acetamidophenyl)-9-ethyl-6-morpholino-9H-purin-8-yl)methyl)(methyl)amino)methyl)phenyl)-N-hydroxyacrylamide], the IC50 was 100 to 1000 nM at PI3Kα; 2000 to 10000 nM with COLO 205; 100 to 1000 nM on HDAC1; 100 to 1000 nM at HDAC6; 100 to 1000 nM in [1]; 2000 to 10000 nM in the assay on K-562. The IC50 in the assay with MOLT-4 lay within 2000 to 10000 nM.
`CC(C)n1cnc2c(-c3ccc(F)c(OCCCC(=O)NO)c3)nc(N3CCOCC3)nc21` [compound 62, 4-(2-fluoro-5-(9-isopropyl-2-morpholino-9H-purin-6-yl)phenoxy)-N-hydroxybutanamide]: the IC50 is 2000 to 10000 nM in the assay on COLO 205; below 500 nM with MV-4-11; 10 to 100 nM in assay [1]; 500 to 2000 nM in the assay with MCF7; 2000 to 10000 nM with PC-3; 500 to 2000 nM in the assay with HepG2.
As to `Nc1ncc(-c2nc(N3CCOCC3)c3ncn(CCCCCCC(=O)NO)c3n2)cn1` [compound 41, 7-(2-(2-aminopyrimidin-5-yl)-6-morpholino-9H-purin-9-yl)-N-hydroxyheptanamide], the IC50 at HDAC6 was below 10 nM.
Take `CCn1c(CN(C)Cc2ccc(/C=C/C(=O)NO)cc2)nc2c(N3CCOCC3)nc(-c3ccc(C(N)=O)cc3)nc21` [compound 90, (E)-4-(9-ethyl-8-(((4-(3-(hydroxyamino)-3-oxoprop-1-en-1-yl)benzyl)(methyl)amino)methyl)-6-morpholino-9H-purin-2-yl)benzamide]: the IC50 at PI3Kα is 100 to 1000 nM; in the assay with COLO 205 it was 2000 to 10000 nM; at HDAC1 it was 100 to 1000 nM; in assay [1] it was 100 to 1000 nM; in the assay with K-562, 2000 to 10000 nM; in the assay on MOLT-4, 2000 to 10000 nM.

In general, IC50 refers to the midpoint of a concentration-inhibition curve.
